Measurements from PubChem BioAssay (NCI).
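Protocol summary: plate cells (96-well), add compound at 5 concentrations, incubate 48 h, interpolate endpoints linearly. At the GI50, growth is halved. TGI denotes the concentration required for complete inhibition of growth.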

Experiments:
Assay in all cases: NCI tumour cell line growth inhibition, 48 h; in the data active = GI50 below about 0.43 µM; inactive = the rest
[1] = system: UACC-257 melanoma
[2] = system: HOP-18 NSCLC
[3] = system: HT29 colon
[4] = system: NCI-H522 lung
[5] = system: SW-620 colon
[6] = system: SK-MEL-28 melanoma
[7] = system: EKVX NSCLC
[8] = system: HL-60(TB) leukemia
[9] = system: 786-0 renal
[10] = system: HOP-92 NSCLC
[11] = system: COLO 205 colon
[12] = system: CAKI-1 renal
[13] = system: M14 melanoma
[14] = system: SNB-19 CNS
[15] = system: MOLT-4 leukemia
[16] = system: OVCAR-8 ovarian
[17] = system: DLD-1 colon
[18] = system: CCRF-CEM leukemia
[19] = system: MALME-3M melanoma
[20] = system: LOX IMVI melanoma
[21] = system: HCC-2998 colon
[22] = system: A549 NSCLC
[23] = system: OVCAR-4 ovarian
[24] = system: RXF 393 renal
[25] = system: KM20L2 colon
[26] = system: SF-268 CNS
[27] = system: KM12 colon
[28] = system: NCI-H226 lung
[29] = system: SNB-78 CNS
[30] = system: SR leukemia
[31] = system: HCT-116 colon
[32] = system: LXFL 529 NSCLC
[33] = system: A498 renal
[34] = system: SK-MEL-2 melanoma
[35] = system: SNB-75 CNS
[36] = system: SN12C renal
[37] = system: K-562 leukemia
[38] = system: SK-MEL-5 melanoma
[39] = system: ACHN renal
[40] = system: OVCAR-5 ovarian
[41] = system: DMS 273 small cell lung
[42] = system: UACC-62 melanoma
[43] = system: HOP-62 NSCLC
[44] = system: SF-539 CNS
[45] = system: IGROV1 ovarian
[46] = system: HCT-15 colon
[47] = system: SF-295 CNS
[48] = system: UO-31 renal
[49] = system: U251 CNS
[50] = system: TK-10 renal
[51] = system: RPMI-8226 leukemia
[52] = system: OVCAR-3 ovarian

CN(C)CCC(N)(P(=O)([O-])[O-])P(=O)([O-])[O-].N.N.[Pt+2]
inactive: GI50 [1] > 100 µM | GI50 [2] > 100 µM | GI50 [3] > 100 µM | GI50 [4] > 100 µM | GI50 [5] > 100 µM | GI50 [6] > 100 µM | GI50 [7] > 100 µM | GI50 [8] > 100 µM | GI50 [9] > 100 µM | GI50 [10] > 100 µM | GI50 [11] > 100 µM | GI50 [12] > 100 µM | GI50 [13] > 100 µM | GI50 [14] > 100 µM | GI50 [15] > 100 µM | GI50 [16] > 100 µM | GI50 [17] > 100 µM | GI50 [18] > 100 µM | GI50 [19] > 100 µM | GI50 [20] > 100 µM | GI50 [21] > 100 µM | GI50 [22] > 100 µM | GI50 [23] > 100 µM | GI50 [24] > 100 µM | GI50 [25] > 100 µM | GI50 [26] > 100 µM | GI50 [27] > 100 µM | GI50 [28] > 100 µM | GI50 [29] > 100 µM | GI50 [30] > 100 µM | GI50 [31] > 100 µM | GI50 [32] > 100 µM | GI50 [33] > 100 µM | GI50 [34] > 100 µM | GI50 [35] > 100 µM | GI50 [36] > 100 µM | GI50 [37] > 100 µM | GI50 [38] > 100 µM | GI50 [39] > 100 µM | GI50 [40] > 100 µM | GI50 [41] > 100 µM | GI50 [42] > 100 µM | GI50 [43] > 100 µM | GI50 [44] > 100 µM | GI50 [45] > 100 µM | GI50 [46] > 100 µM | GI50 [47] > 100 µM | GI50 [48] > 100 µM | GI50 [49] > 100 µM | GI50 [50] > 100 µM | GI50 [51] > 100 µM | GI50 [52] > 100 µM
> 100 µM: TGI [1] | TGI [2] | TGI [3] | TGI [4] | TGI [5] | TGI [6] | TGI [7] | TGI [8] | TGI [9] | TGI [10] | TGI [11] | TGI [12] | TGI [13] | TGI [14] | TGI [15] | TGI [16] | TGI [17] | TGI [18] | TGI [19] | TGI [20] | TGI [21] | TGI [22] | TGI [23] | TGI [24] | TGI [25] | TGI [26] | TGI [27] | TGI [28] | TGI [29] | TGI [30] | TGI [31] | TGI [32] | TGI [33] | TGI [34] | TGI [35] | TGI [36] | TGI [37] | TGI [38] | TGI [39] | TGI [40] | TGI [41] | TGI [42] | TGI [43] | TGI [44] | TGI [45] | TGI [46] | TGI [47] | TGI [48] | TGI [49] | TGI [50] | TGI [51] | TGI [52]
